Several values for one entry are separate records, joined by “and”; a condition that tells them apart may be missing. Identical values can stand only once.
Columns and labels:
in vitro = settings: PAMPA, pH 7.4
Protocol: After being first dissolved in DMSO, the compounds were diluted 1:1 v/v using phosphate buffer (PBS 10 mM, pH 7.4). […] The gastrointestinal (GI) and blood–brain barrier (BBB) phospholipidic bilayers were mimicked by covering each well of the filter plate with either a 10%w/v CHCl3/dodecane brain polar lipid solution or a 1%w/v L-α-phosphatidylcholine solution (PC) in dodecane. After placing a DMSO/PBS 1:1v/v combination solution in the acceptor plate, the sandwich was gently shaken and incubated at room temperature for four hours. Samples were collected from the upper and bottom plates at the end time point, and the LC-UV/MS method was used for analysis. As previously reported, the apparent permeability (Papp cm/s × 10^−6) was quantified.

Src = test: Western blot of Src activation (pSrc/Src) in bioprinted U251 cells; type: cell-based, human; settings: bioprinted U251, 24 h, FBS-free DMEM; for Active form of Src, pSrc (Tyr416), vs. control: 1 or 10 µM, Western blot
Protocol: (§1) A solution of 2% alginate and 8% gelatin (bio-ink) made up the hydrogel utilized for bioprinting. After 15 min of UV light exposure, the powders were dissolved in sterile DPBS in a magnetic stirrer set at 50 °C with laminar flow. After being made, bioink was put in sterile syringes and kept at 4 °C until it was needed. Bioink had been equilibrated at 37 °C prior to the bioprinting process. After that, 2.7 mL of bioink was added to 20 × 10^6 cells that had been resuspended in 300 µL of growth media. Lastly, a disposable cartridge containing a cell/hydrogel suspension was equilibrated in a temperature-controlled printhead for 30 min at 29 °C. The BIO-X bioprinter (Cellink, Gothenburg, Sweden) was used to print in a 12-well plate at a speed of 5 mm/s and a dispensing pressure of 50 kPa, while the temperature was adjusted to 18 °C. Before adding culture media, three-dimensional constructs were crosslinked using CaCl2 for ten minutes and BaCl2 for three minutes. After 8 days, 3D structures, after evaluating cell viability, were treated for 72 h with SI306 and SI306-PD2 at selected concentrations and in different conditions: in complete DMEM high-glucose growth medium and DMEM-high glucose growth medium without FBS (w/o). Fiji ImageJ software (version 2.16.0/1.54p, https://imagej.net/software/fiji/downloads, accessed on 20 May 2025) was used to perform measurements of 3D models’ diameters on images acquired using phase contrast microscopy. A hemocytometer was used to set a scale for normalized measures and to convert real optic distance in pixels. At least five different optical fields were acquired, and the diameter was calculated for at least 100 different cell aggregates in each experimental point.
Cells were subjected to total protein extraction using a ready-to-use cell lysis buffer (Euroclone, Milan, Italy), supplemented by a Protease/Phosphatase Inhibitor Cocktail (Euroclone), diluted 1:100. Cell lysis was further facilitated by three cycles of sonication in an ultrasonic bath (JSP, Los Angeles, CA, USA). […]

[1] = Stability/release in fetal bovine serum (FBS); settings: for Stability (% unmodified compound): FBS, 37 °C; for half-life: bovine, fetal bovine serum (absolute FBS), pH 7.4
U251 spheroids = test: Diameter of U251 spheroids in bioprinted scaffold; type: cell-based, human; settings: 10 µM, 72 h, FBS-free DMEM
Protocol: as §1

[2] = Stability/release in cell culture medium DMEM (10% FBS); type: in vitro ADME; settings: 37 °C; for half-life: bovine, DMEM plus 10% FBS (cell culture medium), read-out: Half-life t1/2 (converted)
[3] = Stability/release in human plasma; settings: for Stability (% unmodified compound): 37 °C; for half-life: human, pH 7.4

| SMILES | Papp at 4 h (in vitro) | Active form of Src, pSrc (Tyr416), vs. control (Src) | Stability (% unmodified compound) ([1]; time 0 h) | Stability (% unmodified compound) ([1]; time 0.083 h) | Stability (% unmodified compound) ([1]; time 0.25 h) | Stability (% unmodified compound) ([1]; time 0.5 h) | Stability (% unmodified compound) ([1]; time 2 h) | Stability (% unmodified compound) ([1]; time 4 h) | Stability (% unmodified compound) ([1]; time 6 h) | half-life [1] | Mean diameter of U251 spheroids vs. control (U251 spheroids) | Stability (% unmodified compound) ([2]; time 0 h) | Stability (% unmodified compound) ([2]; time 0.083 h) | Stability (% unmodified compound) ([2]; time 0.25 h) | Stability (% unmodified compound) ([2]; time 0.5 h) | Stability (% unmodified compound) ([2]; time 1 h) | Stability (% unmodified compound) ([2]; time 2 h) | Stability (% unmodified compound) ([2]; time 4 h) | Stability (% unmodified compound) ([2]; time 24 h) | half-life [2] | other results |
| --- | --- | --- | --- | --- | --- | --- | --- | --- | --- | --- | --- | --- | --- | --- | --- | --- | --- | --- | --- | --- | --- |
| ClC(Cn1ncc2c(Nc3cccc(Br)c3)nc(SCCN3CCOCC3)nc21)c1ccccc1 (stereo not drawn) [SI306, N-(3-bromophenyl)-1-(2-chloro-2-phenylethyl)-6-((2-morpholinoethyl)thio)-1H-pyrazolo[3,4-d]pyrimidin-4-amine] | 8.44 ± 1.03 ×10⁻⁶ cm/s | evident reduction in the active form of Src, starting from 1 µM | 100.24 ± 2.48% | 99.67 ± 0.21% | 98.42 ± 1.19% | 98.49 ± 2.18% | 93.95 ± 2.42 % | 90.92 ± 2.68 % | 90.51 ± 3.24 % | > 100 h | significant difference in the mean diameter of the treated U251 spheroids with respect to the control | 100.11 ± 0.91% | 101.97 ± 2.32% | 103.96 ± 1.68% | 99.17 ± 1.10% | 98.52 ± 3.69% | 98.64 ± 1.79% | 93.56 ± 1.79 % | 87.39% and 87.39 ± 0.41 % | > 100 h | Stability (% unmodified compound) ([1]; time 1 h): 97.91 ± 1.79%; Stability (% unmodified compound) ([1]; time 24 h): 90.02% and 90.02 ± 2.28 %; Stability (% unmodified compound) ([2]; time 6 h): 92.30 ± 0.84 %; Stability (% unmodified compound) ([3]; time 0 h): 100.50 ± 2.32%; Stability (% unmodified compound) ([3]; time 0.083 h): 96.64 ± 2.74%; Stability (% unmodified compound) ([3]; time 0.25 h): 97.99 ± 2.48%; Stability (% unmodified compound) ([3]; time 0.5 h): 98.95 ± 1.18%; Stability (% unmodified compound) ([3]; time 1 h): 99.48 ± 1.70%; Stability (% unmodified compound) ([3]; time 2 h): 99.92 ± 0.61%; Stability (% unmodified compound) ([3]; time 4 h): 95.72 ± 0.76%; Stability (% unmodified compound) ([3]; time 6 h): 95.54 ± 1.74%; Stability (% unmodified compound) ([3]; time 24 h): 93.12% and 93.12 ± 1.70 %; half-life [3]: > 100 h |
| O=C(OCCOCCO)N(c1cccc(Br)c1)c1nc(SCCN2CCOCC2)nc2c1cnn2CC(Cl)c1ccccc1 (stereo not drawn) [SI306-PD2, 2-(2-Hydroxyethoxy)ethyl (3-Bromophenyl)(1-(2-chloro-2-phenylethyl)-6-((2-morpholinoethyl)thio)-1H-pyrazolo[3,4-d]pyrimidin-4-yl)carbamate] | 19.5 ± 0.46 ×10⁻⁶ cm/s | evident reduction in the active form of Src, starting from 1 µM | 100.06 ± 1.13% | 93.64 ± 2.06% | 92.56 ± 3.74% | 89.39 ± 2.87% | 79.26 ± 0.34% | 64.90 ± 1.21% | 56.13 ± 2.72% | 10.7 h | significant difference in the mean diameter of the treated U251 spheroids with respect to the control | 100.02 ± 0.80% | 100.22 ± 0.10% | 103.59 ± 2.97% | 98.01 ± 3.40% | 91.48% and 91.48 ± 0.86% | 85.45 ± 3.20% | 81.41 ± 3.94% | 40.07% and 40.07 ± 1.70% | 18.1 h | pSrc/Src ratio normalized to control, prodrug vs. SI306 (Src; 10 µM, densitometric analysis): higher ability of the prodrug to inhibit the generation of phosphorylated Src than the SI306 compound; Spheroid diameter vs. SI306-treated cells (U251 spheroids): significant reduction in spheroid diameter with respect to SI306-treated cells; Stability (% unmodified compound) ([3]; time 0 h): 101.03 ± 1.58%; Stability (% unmodified compound) ([3]; time 0.083 h): 90.12 ± 2.45%; Stability (% unmodified compound) ([3]; time 0.25 h): 89.41 ± 2.37%; Stability (% unmodified compound) ([3]; time 0.5 h): 89.57 ± 1.82%; Stability (% unmodified compound) ([3]; time 2 h): 88.55 ± 1.18%; Stability (% unmodified compound) ([3]; time 4 h): 71.86 ± 1.03%; Stability (% unmodified compound) ([3]; time 6 h): 70.80 ± 3.25%; half-life [3]: 10.9 h |

From paper PMC12195707, “Evaluation of Antitumoral Activity in a 3D Cell Model of a Src Inhibitor Prodrug for Glioblastoma Treatment” (Pharmaceutics, 2025)
